molecular target: T1, human p38alfa (SAPKa) enzyme (Homo sapiens, UniProt Q16539); assay: p38alpha enzymatic inhibition assay (FRET, ATF2 substrate); type: biochemical; conditions: 1 h pre-incubation; ATF2 0.62 μM, ATP 60 μM; 1 h at 25° C.; read-out: p38α IC50
T1 construct: purchased University of Dundee
Description: Enzymatic activity assay was performed in 96-well microtiter plates (Corning, catalog number # 3686) using a total volume of 50 μl of an assay buffer composed of 50 mM HEPES (4-(2-hydroxyethyl)-1-piperazineethanesulfonic acid) pH 7.5, 10 mM MgCl2, 1.75 mM Na3VO4.
Various concentrations of the test compound or vehicle controls were pre-incubated for one hour with 0.055 μg/ml of the human p38alfa (SAPKa) enzyme (obtained from University of Dundee). The reaction started by addition of biotinylated ATF2 substrate and ATP in concentrations around their Km values (final concentration 0.62 μM and 60 μM respectively) and took place for one hour at 25° C. Addition of the detection reagents, streptavidin—XL665 and anti-phosphoresidue antibody coupled to Europium cryptate, caused the juxtaposition of the cryptate and the XL665 fluorophore, resulting in fluorescence energy transfer (FRET).The FRET intensity depends on the amount of bounded cryptate antibody, which is proportional to the extent of substrate phosphorylation. FRET intensity was measured using Victor 2V spectrofluorometer.
Data were analyzed by non-linear regression (Hill equation) to generate a dose-response curve. The calculated IC50 value is the concentration of the test compound that caused a 50% decrease in the maximal FRET intensity.

T1 sequence (Q16539 whole entry): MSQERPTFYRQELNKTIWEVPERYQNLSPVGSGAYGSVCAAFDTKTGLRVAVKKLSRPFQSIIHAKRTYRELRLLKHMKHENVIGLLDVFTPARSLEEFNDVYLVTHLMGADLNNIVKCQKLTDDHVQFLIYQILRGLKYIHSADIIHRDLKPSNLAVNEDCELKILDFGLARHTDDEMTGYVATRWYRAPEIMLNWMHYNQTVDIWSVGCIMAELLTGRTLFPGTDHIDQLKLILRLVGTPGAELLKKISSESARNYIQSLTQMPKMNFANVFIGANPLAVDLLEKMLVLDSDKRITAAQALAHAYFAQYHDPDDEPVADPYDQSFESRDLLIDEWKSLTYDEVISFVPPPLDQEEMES

Row | Structure (SMILES) | IC50 [nM]
1 | Cc1c(F)cc(C(=O)NC2CC2)cc1-c1ccn2c(=O)n(-c3ccccc3Cl)nc2c1 [Example 7, 3-[2-(2-Chlorophenyl)-3-oxo-2,3-dihydro[1,2,4]triazolo[4,3-a]pyridin-7-yl]-N-cyclopropyl-5-fluoro-4-methylbenzamide] | 1.08
2 | Cc1c(F)cc(C(=O)NC2CC2)cc1-c1ccn2c(=O)n(CC(C)(C)C)nc2c1 [Example 2, N-cyclopropyl-3-[2-(2,2-dimethylpropyl)-3-oxo-2,3-dihydro[1,2,4]triazolo[4,3-a]pyridin-7-yl]-5-fluoro-4-methylbenzamide] | 2
3 | Cc1ccc2c(NC3CC3)noc2c1-c1ccn2c(=O)n(CC(C)(C)C)nc2c1 [Example 11] | 12
